For assay [1], the target named is T1, HIV-1 integrase (wild-type IN) (Human immunodeficiency virus type 1 group M subtype B, UniProt P12497). The assay is described as follows: biochemical.
Assay [2] has as its target T1, HIV-1 integrase (wild-type IN). The assay is described as follows: biochemical. This is another data set of the same source.
Assay [3] relates to wild-type HIV-1 strain (strain LAI). Briefly: Anti-HIV-1 activity in infected human PBMCs. It is filed as cell-based. Conditions: cytotoxicity versus anti-HIV activity.
[4] abbreviates: IC50 ST (strand transfer), wild-type IN 200 nM, 7.5 mM MnCl2.
The mark [5] stands for this setting: Actual ST pIC50, −log IC50 of strand transfer, used for 3D-QSAR.

What is called IC50 is the midpoint of a concentration-inhibition curve. A high value points to weaker potency in that assay.

The structures appear in SMILES notation. Like-named read-outs stand apart in the source and are kept apart here.

Regarding `O=Cc1cc(Br)cc(C(=O)NCc2ccc(F)cc2)c1O` [Compound 8, 5-Bromo-N-(4-fluorobenzyl)-3-formyl-2-hydroxybenzamide], the IC50 in assay [1] was greater than 100 µM.

Take `O=C(O)c1cccc(CCCc2ccccc2)c1O` [Compound 9, 2-hydroxy-3-(3-phenylpropyl)benzoic acid]: the figures for the IC50 in assay [2] (setting [4]) and in assay [1] were greater than 100 µM and 91 µM, respectively.

As for `O=C(O)c1cc(Br)cc(C(=O)/C=C/c2c(Cl)ccc(Cl)c2Cl)c1O` [Compound 25, 5-Bromo-2-hydroxy-3-[3-(2,3,6-trichlorophenyl)-acryloyl]benzoic acid], the results for the IC50 in assay [2] (setting [5]) and in assay [2] (setting [4]) were 3.98 µM and less than 3.7 µM, respectively.

Turning to `O=C(O)c1cc(Cl)cc(C(=O)/C=C/c2ccc(Cl)cc2Cl)c1O` [Compound 27, 5-Chloro-3-[3-(2,4-dichlorophenyl)-acryloyl]-2-hydroxybenzoic acid], in assay [2] (setting [4]), the IC50 was greater than 100 µM.

In the case of `Cc1cc(C)cc(/C=C/C(=O)c2cc(Br)cc(C(=O)O)c2O)c1` [Compound 39, 5-Bromo-3-[3-(3,5-dimethylphenyl)-acryloyl]-2-hydroxybenzoic acid], the IC50 in assay [1] was greater than 100 µM.

Consider `COc1ccc(/C=C/C(=O)c2cc(Br)cc(C(=O)O)c2O)c(Cl)c1OC` [Compound 40, 5-Bromo-3-[3-(2-chloro-3,4-dimethoxyphenyl)-acryloyl]-2-hydroxybenzoic acid], for which the IC50 in assay [1] was greater than 100 µM.

Regarding `COc1cc(F)c(/C=C/C(=O)c2cc(Br)cc(C(=O)O)c2O)cc1OC` [Compound 41, 5-Bromo-3-[3-(2-fluoro-4,5-dimethoxyphenyl)-acryloyl]-2-hydroxybenzoic acid], in assay [1], the IC50 was greater than 100 µM.

Turning to `COc1ccc2cc(C=CC(=O)c3cc(Br)cc(C(=O)O)c3O)ccc2c1` [Compound 48, 5-Bromo-2-hydroxy-3-[3-(6-methoxynaphthalen-2-yl)-acryloyl]benzoic acid], the IC50 in assay [2] (setting [5]) was 55 µM; in assay [2] (setting [4]), 54 ± 25 µM.

On to `O=C(O)c1cc(Br)cc(C(=O)/C=C/c2ccc3sccc3c2)c1O` [Compound 49, 3-(3-Benzo[b]thiophen-5-yl-acryloyl)-5-bromo-2-hydroxybenzoic acid], for which the Selectivity index result in assay [3] is recorded as “up to 4 fold”.

As to `O=C(O)c1cc(Br)cc(C(=O)/C=C/c2ccccc2-c2ccco2)c1O` [Compound 50, 5-Bromo-3-[3-(2-furan-2-yl-phenyl)-acryloyl]-2-hydroxybenzoic acid], the IC50 in assay [1] is greater than 100 µM.

In assay [1], `O=C(O)c1cc(Br)cc(C(=O)/C=C/c2cccc(OC(F)(F)F)c2)c1O` [Compound 52, 5-Bromo-2-hydroxy-3-[3-(3-trifluoromethoxyphenyl)-acryloyl]benzoic acid] displayed an IC50 greater than 100 µM.

As to `N#Cc1cc(Br)cc(C(=O)/C=C/c2c(Cl)ccc(Cl)c2Cl)c1O` [Compound 56, 5-Bromo-2-hydroxy-3-[3-(2,3,6--trichlorophenyl)-acryloyl]benzonitrile], the IC50 in assay [1] was greater than 100 µM.

For the compound `Cc1cc(C(=O)O)c(O)c(C(=O)/C=C/c2c(Cl)ccc(Cl)c2Cl)c1` [Compound 57, 2-Hydroxy-5-methyl-3-[3-(2,3,6-trichlorophenyl)-acryloyl]benzoic acid], in assay [2] (ST inhibition, comparison with compound 25), the “Times less active than corresponding Br-substituted compound 25” value is given as 13 times. Further, the IC50 in assay [1] was greater than 100 µM.

On to `O=C(/C=C/c1cc(Cl)cc(Cl)c1Cl)c1cc(Br)cc([N+](=O)[O-])c1O` [Compound 58, 1-(5-Bromo-2-hydroxy-3-nitrophenyl)-3-(2,3,5-trichlorophenyl)propenone], for which the values for the IC50 in assay [2] (setting [5]), in assay [2] (setting [4]) and in assay [1] were 69.2 µM, 68 ± 5 µM and greater than 333 µM, respectively.

Take `O=C(/C=C/c1c(Cl)ccc(Cl)c1Cl)c1cc(Br)cc([N+](=O)[O-])c1O` [Compound 59, 1-(5-Bromo-2-hydroxy-3-nitrophenyl)-3-(2,3,6-trichlorophenyl)propenone]: the IC50 in assay [2] (setting [5]) was 21.4 µM; in assay [2] (setting [4]), 21 ± 3 µM; in assay [1] it was 36 ± 4 µM.

In assay [1], `O=C(O)c1cc(F)cc(C(=O)CCc2cc(Cl)ccc2Cl)c1O` [Compound 60, 3-[3-(2,5-dichlorophenyl)propionyl]-5-fluoro-2-hydroxybenzoic acid] had a half-maximal inhibitory concentration (IC50) greater than 100 µM.

As to `O=C(O)c1cc(Br)cc(C(=O)NCc2ccc(F)cc2)c1O` [Compound 61, 5-Bromo-N-(4-fluorobenzyl)-2-hydroxyisophthalamic acid], the IC50 in assay [1] was greater than 100 µM.

In turn, `Cc1cccc(C(=O)NCc2ccc(F)cc2)c1O` [Compound 62, N-(4-Fluoro-benzyl)-2-hydroxy-3-methylbenzamide] showed an IC50 in assay [2] (setting [4]) greater than 100 µM.

On to `O=C(NCc1ccc(F)cc1)c1cc(Br)ccc1O` [Compound 63, 5-Bromo-N-(4-fluoro-benzyl)-2-hydroxybenzamide], for which, in assay [2] (setting [4]), the IC50 is greater than 100 µM.

For the origin of these results see paper PMC3866048 (Bioorganic & medicinal chemistry, 2011).
